# Results taken from patent publication US20020076452A1, “Combinations of sesquiterpene lactones and ditepene lactones or triterpenes for synergistic inhibition of cyclooxygenase-2” (Ashni Naturaceuticals, Inc., priority 2000, published 2002).
# Key:
# [1] = molecular target: T1, COX-2 (Mus musculus, UniProt Q05769); assay: cell-based
# T1 sequence (Q05769 18-604): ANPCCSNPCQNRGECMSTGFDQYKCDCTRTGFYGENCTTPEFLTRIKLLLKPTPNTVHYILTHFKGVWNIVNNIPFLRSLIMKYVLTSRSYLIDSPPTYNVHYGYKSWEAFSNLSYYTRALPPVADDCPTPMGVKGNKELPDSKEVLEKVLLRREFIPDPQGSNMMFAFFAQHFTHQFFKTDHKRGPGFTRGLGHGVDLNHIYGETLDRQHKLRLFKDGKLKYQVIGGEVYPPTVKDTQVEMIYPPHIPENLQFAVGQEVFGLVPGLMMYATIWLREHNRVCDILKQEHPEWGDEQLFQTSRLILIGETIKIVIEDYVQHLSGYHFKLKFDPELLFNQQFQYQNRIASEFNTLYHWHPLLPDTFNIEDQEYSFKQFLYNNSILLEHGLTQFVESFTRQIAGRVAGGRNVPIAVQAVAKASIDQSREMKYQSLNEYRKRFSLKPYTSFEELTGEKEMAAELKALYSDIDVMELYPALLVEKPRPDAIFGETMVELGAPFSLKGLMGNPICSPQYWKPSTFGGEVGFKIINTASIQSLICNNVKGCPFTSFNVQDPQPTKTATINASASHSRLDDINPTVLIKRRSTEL
# Experimental: Inhibition of COX-2 Mediated Production of PGE2 in RAW 264.7 Cells
# General Procedure—RAW 264.7 cells, obtained from ATCC, were grown in DMEM medium and maintained in log phase growth.
# On day one of the experiment, the log phase 264.7 cells were plated at 8×10^4 cells per well in 0.2 mL growth medium per well in a 96-well tissue culture plate. After 6 to 8 hours post plating, 100 μL of growth medium from each well was removed and replaced with 100 μL fresh medium. A 1.0 mg/mL solution of LPS, which was used to induce the expression of COX-2 in the RAW 264.7 cells, was prepared by dissolving 1.0 mg of LPS in 1 mL DMSO.
# On day two of the experiment, the test materials were prepared as 1000×stock in DMSO. For example, if the final concentration of the test material was to be 10 μg/mL, a 10 mg/mL stock was prepared by dissolving 10 mg of the test material in 1 mL of DMSO. Fresh test materials were prepared on day 2 of the experiment. In 1.7 mL microfuge tubes, 1 mL DMEM without FBS was added to obtain test concentrations of 0.05, 0.10,0.5, and 1.0 μg/mL. 2 μL of the 1000×DMSO stock of the test material was added to the 1 mL of medium without FBS. The tube contained the final concentration of the test material was concentrated 2-fold. The tube was placed in incubator for 10 minutes to equilibrate.
# One-hundred mL of medium was removed from each well of the cell plates prepared on day one. […]
# [2] = tested on: COX-2; assay: Inhibition of COX-2 enzyme protein expression in stimulated Jurkat cells (western blot); assay type: cell-based, Human; details: in the absence and presence of arachidonic acid, dose-range tested
# Text: Chemicals: Anti-COX-2 antibodies may be purchased from Upstate Biotechnology (Lake Placid, N.Y.). Parthenolide and andrographolide may be obtained from Sigma (St. Louis, Mo.). Arachidonic acid (AA), PMA and all other chemical may also be purchased from Sigma and are of the highest purity commercially available.
# Human T cell lines: The Jurkat cell line is useful as a model for human T cells and may be obtained from the American Type Culture Collection (Bethesda, Md.). COX-2 is inducible in the Jurkat cell by PMA.
# Cell plating: The Jurkat cells are propagated in suspension according to the instructions of the supplier. For experimentation, cells are seeded from a log-phase culture at a density of 1×10^5 cells per mL in 100 mm plates, 20 mL per plate, 3 plates per treatment. Serum concentration in the test medium is maintained at 0.5%.
# Complete transfers are accomplished in 25-30 minutes at 500 mA. Membranes used for blotting are blocked by incubating in TBS (Tris buffered saline, 50 mM Tris, 150 mM NaCl, pH 7.5) containing 5% nonfat dry milk for 30 minutes at room temperature. COX-2 protein is visualized by incubation of the blots with the anti-COX-2 antibody in TBST (0.5% Tween 20 in TBS) for two hours and then a second incubation at room temperature with alkaline phosphatase-conjugated secondary antibody diluted 1:1000 in TBST for two hours. The enzymatic reaction is developed for 15 minutes. The molecular weight of COX-2 is estimated by adding a molecular weight standard to reference lanes and staining the membrane filters with amido black 10B.
# Blots are translated into TIFF-formatted files with a Microtech 600GS scanner and quantified using Scan Analysis (BIOSOFT, Cambridge, UK). Summary scans are then printed and peak heights are measured directly from the figure. One density unit (Du) is defined as one mm of the resulting peak height.
# Appropriate controls receive solvent only. […] Twenty-four hours after treatment, the cells are harvested, lysed and western blotting is done for the determination of COX-2 protein expression.
Structure (SMILES),IC50 [1],Inhibition of COX-2 protein expression [2]
"C[C@H]1[C@H](C)CC[C@]2(C(=O)O)CC[C@]3(C)C(=CC[C@@H]4[C@@]5(C)CC[C@H](O)C(C)(C)[C@@H]5CC[C@]43C)[C@H]12 [Ursolic acid, ursolic acid]",35.3 µM,does not inhibit
"CC1(C)CC[C@]2(C(=O)O)CC[C@]3(C)C(=CC[C@@H]4[C@@]5(C)CC[C@H](O)C(C)(C)[C@@H]5CC[C@]43C)[C@@H]2C1 [Oleanolic acid, oleanolic acid]",–,does not inhibit
"C=C1CC[C@@H]2[C@](C)(CO)[C@H](O)CC[C@@]2(C)[C@@H]1C/C=C1/C(=O)OC[C@H]1O [Andrographolide, andrographolide]",34.8 µM,little effect
